These results are taken from publication PMC12507022, “Widespread distribution of BpfA-mediated bisphenol F degradation among members of the Pseudomonadota and Actinomycetota” (The ISME Journal, 2025).

Assay [1] concerns T1, BpfA.
T1 construct: recombinant from pET29a(+) (NdeI/XhoI) in E. coli BL21(DE3), Ni-NTA purified; contains flavin
Kind of assay: HPLC, Michaelis-Menten fit. It counts as biochemical, Microbacterium sp. F2. To be noted: 20 mM Tris-HCl pH 8.0, 30 °C, O2 as electron acceptor.

The test system of assay [2] is T2, FBO.
T2 construct: synthetic gene, expressed and purified like BpfA (E. coli, Ni-NTA)
Kind of assay: HPLC, Michaelis-Menten fit. It counts as biochemical, Sphingobium sp. W15. To be noted: 20 mM Tris-HCl pH 8.0, 30 °C, 0.2 mM FAD added.

Usually Km stands for the substrate concentration at which the rate is half of its maximum. Turning to `COCc1ccc(O)cc1` [4MOP], the Michaelis constant (Km) in assay [1] is 297 ± 5 µM.

As to `CCCc1ccc(O)c(OC)c1` [4PG], the Michaelis constant (Km) worked out at 170 ± 5.9 µM in assay [2] and 25.4 ± 2.9 µM in assay [1].

Turning to `Oc1ccc(Cc2ccc(O)cc2)cc1` [BPF], the Km in assay [2] was found to be 167 ± 12.8 µM; in assay [1], 12.4 ± 1.9 µM.

For `COc1cc(CO)ccc1O` [VA], the results for the Michaelis-Menten constant (Km) in assay [2] and in assay [1] were 183 ± 9.3 µM and 266 ± 10.3 µM, respectively.
